Numbers after ± are expanded uncertainties.
Settings: for surface tension liquid-gas: Ring tensiometer; for mass density: 101.33 kPa, Liquid, Pycnometric method

Structure (SMILES): CCn1cc[n+](C)c1.O=S(=O)([O-])C(F)(F)F [1-ethyl-3-methylimidazolium trifluoromethanesulfonate]
- surface tension liquid-gas (296.28 K): 44.46 ± 6.2 mN/m
- surface tension liquid-gas (300.79 K): 44.36 ± 6.2 mN/m
- surface tension liquid-gas (304.95 K): 44.2 ± 6.2 mN/m
- surface tension liquid-gas (308.14 K): 44.07 ± 6.2 mN/m
- surface tension liquid-gas (312.41 K): 43.9 ± 6.2 mN/m
- surface tension liquid-gas (317.15 K): 43.81 ± 6.2 mN/m
- surface tension liquid-gas (321.93 K): 43.64 ± 6.1 mN/m
- surface tension liquid-gas (328.68 K): 43.37 ± 6.1 mN/m
- surface tension liquid-gas (333.64 K): 43.15 ± 6.1 mN/m
- surface tension liquid-gas (337.82 K): 42.99 ± 6 mN/m
- surface tension liquid-gas (343.49 K): 42.82 ± 6 mN/m
- surface tension liquid-gas (347.91 K): 42.62 ± 6 mN/m
- surface tension liquid-gas (353.56 K): 42.49 ± 6 mN/m

Structure (SMILES): CCCCn1cc[n+](C)c1.F[P-](F)(F)(F)(F)F [1-butyl-3-methylimidazolium hexafluorophosphate]
- surface tension liquid-gas (298.15 K): 47.92 ± 6.8 mN/m
- surface tension liquid-gas (301.32 K): 47.71 ± 6.8 mN/m
- surface tension liquid-gas (305.79 K): 47.48 ± 6.7 mN/m
- surface tension liquid-gas (309.6 K): 47.29 ± 6.7 mN/m
- surface tension liquid-gas (315.44 K): 46.92 ± 6.7 mN/m
- surface tension liquid-gas (319.95 K): 46.55 ± 6.6 mN/m
- surface tension liquid-gas (325.06 K): 46.15 ± 6.6 mN/m
- surface tension liquid-gas (328.68 K): 46.04 ± 6.5 mN/m
- surface tension liquid-gas (332.22 K): 45.81 ± 6.5 mN/m
- surface tension liquid-gas (335.61 K): 45.41 ± 6.5 mN/m

Structure (SMILES): CCCCCCCCCCCCCC[P+](CCCCCC)(CCCCCC)CCCCCC.O=S(=O)([N-]S(=O)(=O)C(F)(F)F)C(F)(F)F
- mass density (298.15 K): 1050.1 ± 25 kg/m3
- surface tension liquid-gas (298.2 K): 33.08 ± 4.7 mN/m
- surface tension liquid-gas (303 K): 32.57 ± 4.6 mN/m
- mass density (303.15 K): 1048.3 ± 25 kg/m3
- surface tension liquid-gas (308 K): 32.15 ± 4.5 mN/m
- mass density (308.15 K): 1045.2 ± 25 kg/m3
- surface tension liquid-gas (313 K): 31.77 ± 4.5 mN/m
- mass density (313.15 K): 1042 ± 25 kg/m3
- surface tension liquid-gas (318 K): 31.4 ± 4.4 mN/m
- mass density (318.15 K): 1039.2 ± 25 kg/m3
- mass density (323.15 K): 1035.6 ± 25 kg/m3
- surface tension liquid-gas (323.3 K): 31.09 ± 4.4 mN/m
- surface tension liquid-gas (327.9 K): 30.65 ± 4.3 mN/m
- mass density (328.15 K): 1032.9 ± 25 kg/m3
- surface tension liquid-gas (332.9 K): 30.28 ± 4.3 mN/m
- mass density (333.15 K): 1029.6 ± 25 kg/m3
- surface tension liquid-gas (338.9 K): 29.68 ± 4.2 mN/m
- surface tension liquid-gas (344.2 K): 29.45 ± 4.2 mN/m
- surface tension liquid-gas (349.8 K): 28.93 ± 4.1 mN/m

Structure (SMILES): CCCCCCCC[N+](C)(CCCCCCCC)CCCCCCCC.O=S(=O)([N-]S(=O)(=O)C(F)(F)F)C(F)(F)F
- mass density (298.15 K): 1082.3 ± 26 kg/m3
- surface tension liquid-gas (299.46 K): 29.06 ± 4.2 mN/m
- mass density (303.15 K): 1080.3 ± 26 kg/m3
- surface tension liquid-gas (303.25 K): 28.93 ± 4.1 mN/m
- mass density (308.15 K): 1077.3 ± 26 kg/m3
- surface tension liquid-gas (310.18 K): 28.53 ± 4.1 mN/m
- mass density (313.15 K): 1073.8 ± 26 kg/m3
- surface tension liquid-gas (313.77 K): 28.23 ± 4 mN/m
- mass density (318.15 K): 1073.8 ± 26 kg/m3
- surface tension liquid-gas (318.67 K): 27.85 ± 4 mN/m
- surface tension liquid-gas (321 K): 27.63 ± 4 mN/m
- mass density (323.15 K): 1067.2 ± 26 kg/m3
- surface tension liquid-gas (326.3 K): 27.18 ± 3.9 mN/m
- mass density (328.15 K): 1063.9 ± 26 kg/m3
- surface tension liquid-gas (329.6 K): 27.01 ± 3.9 mN/m
- mass density (333.15 K): 1061.1 ± 26 kg/m3
- surface tension liquid-gas (336.79 K): 26.69 ± 3.8 mN/m

Structure (SMILES): CCCCCCCCCCCCCC[P+](CCCCCC)(CCCCCC)CCCCCC.N#C[N-]C#N [tetradecyl(trihexyl)phosphonium dicyanamide]
- surface tension liquid-gas (295.06 K): 35.22 ± 5 mN/m
- mass density (298.15 K): 920.9 ± 25 kg/m3
- surface tension liquid-gas (299.35 K): 34.85 ± 5 mN/m
- surface tension liquid-gas (302.95 K): 34.58 ± 4.9 mN/m
- mass density (303.15 K): 917.3 ± 25 kg/m3
- surface tension liquid-gas (305.04 K): 34.45 ± 4.9 mN/m
- mass density (308.15 K): 916.3 ± 25 kg/m3
- surface tension liquid-gas (310.4 K): 34.06 ± 4.9 mN/m
- mass density (313.15 K): 913.1 ± 25 kg/m3
- surface tension liquid-gas (314.39 K): 33.8 ± 4.8 mN/m
- mass density (318.15 K): 910.1 ± 25 kg/m3
- surface tension liquid-gas (318.38 K): 33.5 ± 4.8 mN/m
- surface tension liquid-gas (322.47 K): 33.24 ± 4.8 mN/m
- mass density (323.15 K): 907.5 ± 25 kg/m3
- surface tension liquid-gas (326.14 K): 32.94 ± 4.7 mN/m
- surface tension liquid-gas (327.42 K): 32.61 ± 4.7 mN/m
- mass density (328.15 K): 905 ± 25 kg/m3
- surface tension liquid-gas (333.02 K): 32.2 ± 4.6 mN/m
- mass density (333.15 K): 902.4 ± 25 kg/m3
- surface tension liquid-gas (338.6 K): 31.66 ± 4.5 mN/m
- surface tension liquid-gas (343.13 K): 31.33 ± 4.5 mN/m
- surface tension liquid-gas (348.47 K): 31.09 ± 4.4 mN/m

Structure (SMILES): CCn1cc[n+](C)c1.O=S(=O)([N-]S(=O)(=O)C(F)(F)F)C(F)(F)F
- surface tension liquid-gas (298.7 K): 41.62 ± 5.9 mN/m
- surface tension liquid-gas (302.05 K): 41.38 ± 5.8 mN/m
- surface tension liquid-gas (305.74 K): 41.19 ± 5.8 mN/m
- surface tension liquid-gas (309.16 K): 41.02 ± 5.8 mN/m
- surface tension liquid-gas (312.6 K): 40.87 ± 5.8 mN/m
- surface tension liquid-gas (316.2 K): 40.67 ± 5.7 mN/m
- surface tension liquid-gas (319.33 K): 40.5 ± 5.7 mN/m
- surface tension liquid-gas (322.63 K): 40.39 ± 5.7 mN/m
- surface tension liquid-gas (326.13 K): 40.19 ± 5.6 mN/m
- surface tension liquid-gas (331.02 K): 39.94 ± 5.6 mN/m

Structure (SMILES): CCCCCC[N+](C)(C)CCC.O=S(=O)([N-]S(=O)(=O)C(F)(F)F)C(F)(F)F
- mass density (298.15 K): 1284.6 ± 26 kg/m3
- surface tension liquid-gas (300.1 K): 36.74 ± 5.2 mN/m
- surface tension liquid-gas (302 K): 36.58 ± 5.2 mN/m
- surface tension liquid-gas (303.1 K): 36.49 ± 5.2 mN/m
- mass density (303.15 K): 1281.6 ± 26 kg/m3
- surface tension liquid-gas (304 K): 36.42 ± 5.2 mN/m
- surface tension liquid-gas (306 K): 36.25 ± 5.2 mN/m
- surface tension liquid-gas (308.1 K): 36.11 ± 5.2 mN/m
- mass density (308.15 K): 1277.5 ± 26 kg/m3
- surface tension liquid-gas (312.3 K): 35.78 ± 5.1 mN/m
- mass density (313.15 K): 1273.2 ± 26 kg/m3
- surface tension liquid-gas (315.2 K): 35.55 ± 5.1 mN/m
- surface tension liquid-gas (318 K): 35.33 ± 5 mN/m
- mass density (318.15 K): 1269.9 ± 26 kg/m3
- surface tension liquid-gas (320.6 K): 35.14 ± 5 mN/m
- surface tension liquid-gas (322.6 K): 35.01 ± 5 mN/m
- mass density (323.15 K): 1266 ± 26 kg/m3
- mass density (328.15 K): 1266 ± 26 kg/m3
- mass density (333.15 K): 1258.5 ± 26 kg/m3

Structure (SMILES): CCCCCC[N+](CC)(CC)CC.O=S(=O)([N-]S(=O)(=O)C(F)(F)F)C(F)(F)F [triethylhexylammonium bis((trifluoromethyl)sulfonyl)imide]
- mass density (298.15 K): 1279.3 ± 26 kg/m3
- surface tension liquid-gas (299.54 K): 35.17 ± 5 mN/m
- surface tension liquid-gas (302.65 K): 34.9 ± 5 mN/m
- mass density (303.15 K): 1275.4 ± 26 kg/m3
- surface tension liquid-gas (307.05 K): 34.45 ± 4.9 mN/m
- mass density (308.15 K): 1271.9 ± 26 kg/m3
- mass density (313.15 K): 1267.6 ± 26 kg/m3
- surface tension liquid-gas (313.73 K): 33.88 ± 4.8 mN/m
- mass density (318.15 K): 1264.4 ± 26 kg/m3
- surface tension liquid-gas (319.84 K): 33.49 ± 4.8 mN/m
- mass density (323.15 K): 1260.8 ± 26 kg/m3
- surface tension liquid-gas (324.94 K): 32.98 ± 4.7 mN/m
- mass density (328.15 K): 1257.4 ± 26 kg/m3
- surface tension liquid-gas (329.34 K): 32.72 ± 4.7 mN/m
- mass density (333.15 K): 1253 ± 26 kg/m3
- surface tension liquid-gas (335.04 K): 32.47 ± 4.6 mN/m
- surface tension liquid-gas (341.93 K): 31.98 ± 4.6 mN/m
- surface tension liquid-gas (347.11 K): 31.45 ± 4.5 mN/m

From the NIST ThermoML archive (doi:10.1021/je7003098)
